Laboratory results from patent publication US9274101B2 (BIOLOG, Inc., priority 2001, dated 2016).
Where two headings read alike, the source gives them in different places. Where a SMILES comes first, the peptide text is derived from it. [ ]: non-standard residue; d: D form.

How the values were obtained:
[1] = tested on: HL-60 cells; assay: HL-60 responses in PM1a, PM6, PM7 and PM8 plates; format: cell-based, human
Method: In this Example, methods for testing unattached cells for their ability to use various carbon sources including di and tri-peptides are described.
After washing, HL-60 cells were resuspended in DME-R. An aliquot of the cell suspension was counted by trypan blue exclusion and the cell density was adjusted to 1×10^6/mL. Fifty μL of DME-R were added to each well of the appropriate number of half area, 96-well plates. The cells were plated at a volume of 50 μL/well, giving a final cell density of 5×10^4/well. PM1a, MP6, PM7, and PM8 MICROPLATE testing plates were inoculated (these MICROPLATE testing plates are available from Biolog under license). For each plate containing chemicals and cells, a second, control plate containing only chemicals was prepared. All wells contained a total volume of 100 μL. Plates were incubated at 5% CO2, 90-100% humidity, and 37° C. for 1 hour prior to addition of the MTS/MPMS colorometric reagent (5 μL/well). The color formed in each well after an additional 24 hour incubation period, was measured on a plate reader at 490 nm with a reference wavelength of 650 nm. OD values from the control plate were subtracted from the OD values obtained with cells prior to normalizing the data to % negative control (cells without added energy source).

[2] = tested on: Salmonella typhimurium auxotrophs hisF645 and pyrCΔ73; format: cell-based
[3] = tested on: ten strains of E. coli; format: cell-based, Escherichia coli
[4] = tested on: HL-60 cells; assay: Effect of 10 mM citric acid on HL-60 energy utilization; format: cell-based, human
[5] = tested on: E. coli MG1655; format: cell-based, Escherichia coli
[6] = tested on: E. coli MG1655; format: cell-based, Escherichia coli; remark: listed apart in the source
[7] = PM6, PM7, PM8, positive = greater than 130% of the negative control

SMILES | response of HL-60 cells to peptides [1, 7] | also measured
CC(C)C[C@H](NC(=O)CNC(=O)CN)C(=O)O | – | response of HL-60 cells to peptides [1]: positive response
Nc1ccn([C@H]2C[C@H](O)[C@@H](CO)O2)c(=O)n1 [2-deoxycytidine] | – | growth stimulation (well color) [2]: turned purple
O=c1ccn([C@H]2C[C@H](O)[C@@H](CO)O2)c(=O)[nH]1 [2-deoxyuridine] | – | growth stimulation (well color) [2]: turned purple
Nc1ncnc2c1ncn2[C@H]1C[C@H](O)[C@@H](CO)O1 [2′-deoxy-adenosine] | – | carbon source utilization [3]: +; growth stimulation (well color) [2]: turned weakly purple
Nc1nc2c(ncn2[C@H]2C[C@H](O)[C@@H](CO)O2)c(=O)[nH]1 [2′deoxyguanosine] | – | growth stimulation (well color) [2]: turned weakly purple
C[C@@H](N)C(=O)N[C@H](C)C(=O)O [D-ala-D-ala] (H-[dA]-[dA]-OH) | positive response | –
O=C1O[C@@H]([C@H](O)CO)[C@H](O)[C@H]1O [D-galactonic acid-γ-lactone] | – | carbon source utilization [3]: − and +; carbon source utilization (text) [3]: negative; cell activity in the presence of citric acid, in words [4]: capable of overcoming the antiproliferative effects of citric acid
N[C@@H](CS)C(=O)O [L-cysteine] | – | suitability as nitrogen source (growth, purple color) [5]: not suitable; suitability as sulfur source (growth, purple color) [6]: positive
O=C1O[C@H]([C@@H](O)CO)[C@@H](O)[C@@H]1O [L-galactonic acid γ-lactone] | – | carbon source utilization [3]: +; cell activity in the presence of citric acid, in words [4]: capable of overcoming the antiproliferative effects of citric acid
COC(=O)CCC(=O)O [Mono-methyl succinate] | – | carbon source utilization [3]: +; cell activity, % of the control without citric acid ([4]; 10 mM citric acid): up to 210%
C[C@H](N)C(=O)N[C@@H](CCC(N)=O)C(=O)O [ala-gln] (H-Ala-Gln-OH) | positive response | suitability as nitrogen source (growth, purple color) [5]: positive
N[C@@H](CS)C(=O)NCC(=O)O [cys-gly] | positive response | suitability as sulfur source (growth, purple color) [6]: positive
Nc1ccn([C@@H]2O[C@H](CO)[C@@H](O)[C@H]2O)c(=O)n1 [cytidine] | – | growth stimulation (well color) [2]: turned purple
Nc1cc[nH]c(=O)n1 [cytosine] | – | suitability as nitrogen source (growth, purple color) [5]: not suitable; growth stimulation (well color) [2]: turned purple
NC(=O)CC[C@H](N)C(=O)N[C@@H](CCC(=O)O)C(=O)O [gln-glu] (H-Gln-Glu-OH) | positive response | –
NCC(=O)N[C@H](CO)C(=O)O [gly-D-ser] (H-Gly-[dS]-OH) | positive response | –
CC(C)[C@@H](NC(=O)CN)C(=O)O [gly-D-val] (H-Gly-[dV]-OH) | positive response | –
CC[C@H](C)[C@H](NC(=O)CNC(=O)CN)C(=O)O [gly-gly-ile] (H-Gly-Gly-Ile-OH) | positive response | –
NCC(=O)NCC(=O)O [gly-gly] (H-Gly-Gly-OH) | positive response | –
NCC(=O)N[C@@H](Cc1cnc[nH]1)C(=O)O [gly-his] (H-Gly-His-OH) | positive response | –

SMILES | response of HL-60 cells to peptides [1, 7] | also measured
CC(C)[C@H](NC(=O)CN)C(=O)O [gly-val] (H-Gly-Val-OH) | positive response | –
Nc1nc2nc[nH]c2c(=O)[nH]1 [guanine] | – | growth stimulation (well color) [2]: turned weakly purple
N[C@@H](Cc1cnc[nH]1)C(=O)N[C@@H](CC(=O)O)C(=O)O [his-asp] (H-His-Asp-OH) | positive response | –
N[C@@H](Cc1cnc[nH]1)C(=O)N[C@@H](Cc1cnc[nH]1)C(=O)O [his-his] | positive response | –
CC[C@H](C)[C@H](N)C(=O)N[C@@H](CCC(N)=O)C(=O)O [ile-gln] (H-Ile-Gln-OH) | positive response | –
N[C@@H](Cc1ccccc1)C(=O)N[C@@H](CC(=O)O)C(=O)O [phe-asp] (H-Phe-Asp-OH) | positive response | –
C[C@H](NC(=O)[C@@H]1CCCN1)C(=O)O [pro-ala] (H-Pro-Ala-OH) | positive response | –
O=C(O)[C@H](Cc1c[nH]c2ccccc12)NC(=O)[C@@H]1CCCN1 [pro-trp] (H-Pro-Trp-OH) | positive response | –
CC(C)CC(NC(=O)C(N)CO)C(=O)O (stereo not drawn) [ser-leu] (H-Ser-Leu-OH; configuration not given here) | positive response | –
CSCC[C@H](NC(=O)[C@@H](N)CO)C(=O)O [ser-met] (H-Ser-Met-OH) | positive response | –
N[C@@H](CO)C(=O)N[C@@H](Cc1ccccc1)C(=O)O [ser-phe] | – | response of HL-60 cells to peptides [1]: positive response
CSCC[C@H](NC(=O)[C@@H](N)[C@@H](C)O)C(=O)O [thr-met] (H-Thr-Met-OH) | positive response | –
C[C@@H](O)[C@H](N)C(=O)N1CCC[C@H]1C(=O)O [thr-pro] (H-Thr-Pro-OH) | positive response | –
C[C@@H](O)[C@H](N)C(=O)N[C@@H](CO)C(=O)O [thr-ser] (H-Thr-Ser-OH) | positive response | –
C[C@H](NC(=O)[C@@H](N)Cc1ccc(O)cc1)C(=O)O [tyr-ala] | positive response | –
N[C@@H](Cc1ccc(O)cc1)C(=O)N[C@@H](Cc1ccccc1)C(=O)O [tyr-phe] (H-Tyr-Phe-OH) | positive response | –
CC(C)[C@H](NC(=O)[C@@H](N)Cc1ccc(O)cc1)C(=O)O [tyr-val] (H-Tyr-Val-OH) | positive response | –
O=c1cc[nH]c(=O)[nH]1 [uracil] | – | suitability as nitrogen source (growth, purple color) [5]: not suitable; growth stimulation (well color) [2]: turned purple
CC(C)[C@H](N)C(=O)N[C@@H](CCC(N)=O)C(=O)O [val-gln] (H-Val-Gln-OH) | positive response | –
CC(C)[C@H](N)C(=O)N[C@@H](Cc1ccc(O)cc1)C(=O)N[C@H](C(=O)O)C(C)C [val-tyr-val] (H-Val-Tyr-Val-OH) | positive response | –
